Assay results taken from US20210255193A1, “LYSINE REACTIVE PROBES AND USES THEREOF” (The Scripps Research Institute, priority 2017, published 2021).
Blank lines part the entries; values can stand above or below the compound they belong to.

What was measured:
Test in all cases: competitive isoTOP-ABPP
Type in all cases: binding
DCTN2 Dynactin subunit 2 = target: T1, DCTN2 Dynactin subunit 2 (Homo sapiens, UniProt Q13561); settings: for isoTOP-ABPP ratio (R) at liganded lysine Q13561_K175: sol, 231
T1 construct: isoTOP-ABPP experiments performed in cell lysates (in vitro); endogenous in cells; host or cells: soluble proteome of human cancer cell lines (MDA-MB-231, Ramos, Jurkat)
T1 sequence (Q13561 whole entry): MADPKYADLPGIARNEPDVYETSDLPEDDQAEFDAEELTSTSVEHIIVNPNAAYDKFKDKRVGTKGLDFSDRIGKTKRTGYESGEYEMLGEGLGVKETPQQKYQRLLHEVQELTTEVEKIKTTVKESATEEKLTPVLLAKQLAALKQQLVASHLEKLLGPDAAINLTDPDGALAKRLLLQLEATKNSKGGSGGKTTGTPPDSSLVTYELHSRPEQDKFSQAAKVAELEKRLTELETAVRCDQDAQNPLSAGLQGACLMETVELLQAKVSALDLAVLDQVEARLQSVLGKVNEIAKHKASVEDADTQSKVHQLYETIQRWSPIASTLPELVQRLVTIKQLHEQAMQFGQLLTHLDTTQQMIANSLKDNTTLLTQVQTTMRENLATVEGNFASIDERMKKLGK
How it was run: (§1)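 Readout: isotopic light/heavy MS1 peak-area ratio (R, DMSO heavy over compound light), median across peptides sharing a modified lysine. Lysate received fragment (activated esters 50 μM, guanidinylating agents 100 μM final) or DMSO, then 0.1 mM STP-alkyne probe for 1 h at ambient temperature.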

[1] = target: T2, UCHL5 Ubiquitin carboxyl-terminal hydrolase isozyme L5 (Homo sapiens, UniProt Q9Y5K5); settings: for isoTOP-ABPP ratio (R) at liganded lysine Q9Y5K5_K323: sol, 231
T2 construct: endogenous in cells; host or cells: MDA-MB-231 (soluble fraction of lysate)
T2 sequence (Q9Y5K5 1-329): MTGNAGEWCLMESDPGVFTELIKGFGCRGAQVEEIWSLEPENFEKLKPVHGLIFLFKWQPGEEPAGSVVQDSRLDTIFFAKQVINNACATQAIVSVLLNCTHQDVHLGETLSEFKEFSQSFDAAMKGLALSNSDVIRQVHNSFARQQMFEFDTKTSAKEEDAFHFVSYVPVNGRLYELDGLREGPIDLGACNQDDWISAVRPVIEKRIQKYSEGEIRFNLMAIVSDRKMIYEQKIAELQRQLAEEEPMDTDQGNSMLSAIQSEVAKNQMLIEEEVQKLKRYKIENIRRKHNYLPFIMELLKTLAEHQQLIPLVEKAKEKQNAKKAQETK
How it was run: as §1

[2] = target: T3, WARS Tryptophan--tRNA ligase, cytoplasmic (Homo sapiens, UniProt P23381); settings: for isoTOP-ABPP ratio (R) at liganded lysine P23381_K256: sol, 231
T3 construct: isoTOP-ABPP experiments performed in cell lysates (in vitro); endogenous in cells; host or cells: soluble proteome of human cancer cell lines (MDA-MB-231; Ramos and Jurkat also prepared)
T3 sequence (P23381 1-471): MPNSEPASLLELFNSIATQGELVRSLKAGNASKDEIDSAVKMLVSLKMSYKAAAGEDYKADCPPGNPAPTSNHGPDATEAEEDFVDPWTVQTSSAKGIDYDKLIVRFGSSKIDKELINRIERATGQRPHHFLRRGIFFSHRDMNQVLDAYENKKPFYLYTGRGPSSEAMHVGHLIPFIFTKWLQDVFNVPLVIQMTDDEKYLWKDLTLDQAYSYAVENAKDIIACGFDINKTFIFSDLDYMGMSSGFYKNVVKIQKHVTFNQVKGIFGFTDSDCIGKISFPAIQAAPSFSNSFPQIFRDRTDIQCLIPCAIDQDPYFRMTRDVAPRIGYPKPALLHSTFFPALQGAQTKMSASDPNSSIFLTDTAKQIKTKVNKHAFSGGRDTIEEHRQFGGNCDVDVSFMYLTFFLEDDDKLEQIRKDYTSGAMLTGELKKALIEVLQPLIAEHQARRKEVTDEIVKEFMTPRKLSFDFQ
How it was run: as §1

[3] = target: T4, HNRNPK Heterogeneous nuclear ribonucleoprotein K (Homo sapiens, UniProt P61978); settings: for isoTOP-ABPP ratio (R) at liganded lysine P61978_K405: sol, 231
T4 construct: isoTOP-ABPP experiments performed in cell lysates (in vitro); endogenous in cells; host or cells: soluble proteome of human cancer cell lines (MDA-MB-231, Ramos, Jurkat)
How it was run: as §1

SMILES: O=C(CCc1ccc2c(c1)OCO2)Oc1ccc([N+](=O)[O-])cc1[N+](=O)[O-] [fragment 45, 2,4-Dinitrophenyl 3-(benzo[d][1,3]dioxol-5-yl)propanoate]
- isoTOP-ABPP ratio, lysine Q13561_K175 (DCTN2 Dynactin subunit 2; 50 uM_231_sol_in vitro): 1.6
- isoTOP-ABPP ratio, lysine Q9Y5K5_K323 ([1]; 50 uM_231_sol_in vitro): 1.5
- isoTOP-ABPP ratio, lysine P23381_K256 ([2]; 50 uM_231_sol_in vitro): 1.1
- isoTOP-ABPP ratio, lysine P61978_K405 ([3]; 50 uM_231_sol_in vitro): 1.1

SMILES: O=C(Oc1ccc([N+](=O)[O-])cc1[N+](=O)[O-])c1ccccc1Nc1cccc(C(F)(F)F)c1 [fragment 40, 2,4-Dinitrophenyl 2-((3-(trifluoromethyl)phenyl)amino)benzoate]
- isoTOP-ABPP ratio (R) at liganded lysine Q13561_K175 (DCTN2 Dynactin subunit 2; 50 uM, in vitro): 0.9
- isoTOP-ABPP ratio (R) at liganded lysine Q9Y5K5_K323 ([1]; 50 uM, in vitro): 1.0
- isoTOP-ABPP ratio (R) at liganded lysine P23381_K256 ([2]; 50 uM, in vitro): 1.1
- isoTOP-ABPP ratio (R) at liganded lysine P61978_K405 ([3]; 50 uM, in vitro): 0.9

SMILES: O=C(ON1C(=O)CCC1=O)c1cc(C(F)(F)F)cc(C(F)(F)F)c1 [fragment 46, 3,5-Bis(trifluoromethyl)benzoic acid NHS ester]
- isoTOP-ABPP ratio, lysine Q13561_K175 (DCTN2 Dynactin subunit 2; 50 uM_231_sol_in vitro): 0.8
- isoTOP-ABPP ratio, lysine Q9Y5K5_K323 ([1]; 50 uM_231_sol_in vitro): 1.0
- isoTOP-ABPP ratio, lysine P23381_K256 ([2]; 50 uM_231_sol_in vitro): 1.6
- isoTOP-ABPP ratio, lysine P61978_K405 ([3]; 50 uM_231_sol_in vitro): 1.1

SMILES: O=C(Oc1ccc([N+](=O)[O-])cc1[N+](=O)[O-])c1ccc(Oc2ccccc2)cc1 [fragment 39, 2,4-Dinitrophenyl 4-phenoxybenzoate]
- isoTOP-ABPP ratio (R) at liganded lysine Q13561_K175 (DCTN2 Dynactin subunit 2; 50 uM, in vitro): 0.8
- isoTOP-ABPP ratio (R) at liganded lysine Q9Y5K5_K323 ([1]; 50 uM, in vitro): 0.9
- isoTOP-ABPP ratio (R) at liganded lysine P23381_K256 ([2]; 50 uM, in vitro): 0.9
- isoTOP-ABPP ratio (R) at liganded lysine P61978_K405 ([3]; 50 uM, in vitro): 0.8

SMILES: O=C(Oc1ccc([N+](=O)[O-])cc1[N+](=O)[O-])C(c1ccccc1)c1ccccc1 [fragment 30, 2,4-Dinitrophenyl 2,2-diphenylacetate]
- isoTOP-ABPP reactivity ratio at lysine Q13561_K175 (DCTN2 Dynactin subunit 2; 50 uM, 231 sol, in vitro): 3.4
- isoTOP-ABPP reactivity ratio at lysine Q9Y5K5_K323 ([1]; 50 uM, 231 sol, in vitro): 1.1
- isoTOP-ABPP reactivity ratio at lysine P23381_K256 ([2]; 50 uM, 231 sol, in vitro): 1.1
- isoTOP-ABPP reactivity ratio at lysine P61978_K405 ([3]; 50 uM, 231 sol, in vitro): 0.9

- isoTOP-ABPP reactivity ratio at lysine Q13561_K175 (DCTN2 Dynactin subunit 2; 50 uM, 231 sol, in vitro): 1.2
- isoTOP-ABPP reactivity ratio at lysine Q9Y5K5_K323 ([1]; 50 uM, 231 sol, in vitro): 1.1
- isoTOP-ABPP reactivity ratio at lysine P23381_K256 ([2]; 50 uM, 231 sol, in vitro): 2.7
- isoTOP-ABPP reactivity ratio at lysine P61978_K405 ([3]; 50 uM, 231 sol, in vitro): 1.0
SMILES: O=C(CN1C(=O)c2ccccc2C1=O)Oc1c(F)c(F)c(F)c(F)c1F [fragment 27, Pentafluorophenyl 2-(1,3-dioxoisoindolin-2-yl)acetate]

SMILES: CC(=O)Oc1ccc([N+](=O)[O-])cc1[N+](=O)[O-] [fragment 43, 2,4-Dinitrophenyl acetate]
- isoTOP-ABPP ratio (R) at liganded lysine Q13561_K175 (DCTN2 Dynactin subunit 2; 50 uM, in vitro): 0.6
- isoTOP-ABPP ratio (R) at liganded lysine Q9Y5K5_K323 ([1]; 50 uM, in vitro): 1.0
- isoTOP-ABPP ratio (R) at liganded lysine P23381_K256 ([2]; 50 uM, in vitro): 1.0
- isoTOP-ABPP ratio (R) at liganded lysine P61978_K405 ([3]; 50 uM, in vitro): 1.3

- R value (DMSO/fragment) for probe 1 labeling (DCTN2 Dynactin subunit 2; Q13561_K175, 50 uM, 231 sol, in vitro): 0.9
- R value (DMSO/fragment) for probe 1 labeling ([1]; Q9Y5K5_K323, 50 uM, 231 sol, in vitro): 1.0
- R value (DMSO/fragment) for probe 1 labeling ([2]; P23381_K256, 50 uM, 231 sol, in vitro): 1.1
- R value (DMSO/fragment) for probe 1 labeling ([3]; P61978_K405, 50 uM, 231 sol, in vitro): 1.0
SMILES: O=C(Oc1c(F)c(F)c(F)c(F)c1F)c1cc(C(F)(F)F)cc(C(F)(F)F)c1 [fragment 21, Pentafluorophenyl 3,5-bis(trifluoromethyl)benzoate]

SMILES: Cn1cc(CC(=O)Oc2ccc([N+](=O)[O-])cc2[N+](=O)[O-])c2ccccc21 [fragment 32, 2,4-Dinitrophenyl 2-(1-methyl-1H-indol-3-yl)acetate]
- isoTOP-ABPP reactivity ratio at lysine Q13561_K175 (DCTN2 Dynactin subunit 2; 50 uM, 231 sol, in vitro): 4.4
- isoTOP-ABPP reactivity ratio at lysine Q9Y5K5_K323 ([1]; 50 uM, 231 sol, in vitro): 1.0
- isoTOP-ABPP reactivity ratio at lysine P23381_K256 ([2]; 50 uM, 231 sol, in vitro): 0.9
- isoTOP-ABPP reactivity ratio at lysine P61978_K405 ([3]; 50 uM, 231 sol, in vitro): 0.9

SMILES: O=C(CCc1cn(-c2ccccc2)nc1-c1ccccc1)Oc1ccc([N+](=O)[O-])cc1[N+](=O)[O-] [fragment 29, 2,4-Dinitrophenyl 3-(1,3-diphenyl-1H-pyrazol-4-yl)propanoate]
- isoTOP-ABPP reactivity ratio at lysine Q13561_K175 (DCTN2 Dynactin subunit 2; 50 uM, 231 sol, in vitro): 1.3
- isoTOP-ABPP reactivity ratio at lysine Q9Y5K5_K323 ([1]; 50 uM, 231 sol, in vitro): 1.1
- isoTOP-ABPP reactivity ratio at lysine P23381_K256 ([2]; 50 uM, 231 sol, in vitro): 0.9
- isoTOP-ABPP reactivity ratio at lysine P61978_K405 ([3]; 50 uM, 231 sol, in vitro): 20.0

SMILES: N#Cc1ccc(C(=O)Oc2ccc([N+](=O)[O-])cc2[N+](=O)[O-])cc1 [fragment 44, 2,4-Dinitrophenyl 4-cyanobenzoate]
- isoTOP-ABPP ratio, lysine Q13561_K175 (DCTN2 Dynactin subunit 2; 50 uM_231_sol_in vitro): 0.8
- isoTOP-ABPP ratio, lysine Q9Y5K5_K323 ([1]; 50 uM_231_sol_in vitro): 0.9
- isoTOP-ABPP ratio, lysine P23381_K256 ([2]; 50 uM_231_sol_in vitro): 1.1
- isoTOP-ABPP ratio, lysine P61978_K405 ([3]; 50 uM_231_sol_in vitro): 1.0

- isoTOP-ABPP reactivity ratio at lysine Q13561_K175 (DCTN2 Dynactin subunit 2; 50 uM, 231 sol, in vitro): 1.6
- isoTOP-ABPP reactivity ratio at lysine Q9Y5K5_K323 ([1]; 50 uM, 231 sol, in vitro): 1.1
- isoTOP-ABPP reactivity ratio at lysine P23381_K256 ([2]; 50 uM, 231 sol, in vitro): 2.3
- isoTOP-ABPP reactivity ratio at lysine P61978_K405 ([3]; 50 uM, 231 sol, in vitro): 0.9
SMILES: O=C(CCc1coc2cc(F)ccc2c1=O)Oc1c(F)c(F)c(F)c(F)c1F [fragment 26, Pentafluorophenyl 3-(7-fluoro-4-oxo-4H-chromen-3-yl)propanoate]

SMILES: O=C(Oc1ccc([N+](=O)[O-])cc1[N+](=O)[O-])C1CCN(C(=O)OCc2ccccc2)CC1 [fragment 34, 1-Benzyl 4-(2,4-dinitrophenyl) piperidine-1,4-dicarboxylate]
- isoTOP-ABPP ratio (R) at liganded lysine Q13561_K175 (DCTN2 Dynactin subunit 2; 50 uM, in vitro): 1.7
- isoTOP-ABPP ratio (R) at liganded lysine Q9Y5K5_K323 ([1]; 50 uM, in vitro): 0.9
- isoTOP-ABPP ratio (R) at liganded lysine P23381_K256 ([2]; 50 uM, in vitro): 1.0
- isoTOP-ABPP ratio (R) at liganded lysine P61978_K405 ([3]; 50 uM, in vitro): 1.4

- isoTOP-ABPP ratio, lysine Q13561_K175 (DCTN2 Dynactin subunit 2; 100 uM_231_sol_in vitro): 1.3
- isoTOP-ABPP ratio, lysine Q9Y5K5_K323 ([1]; 100 uM_231_sol_in vitro): 2.2
- isoTOP-ABPP ratio, lysine P23381_K256 ([2]; 100 uM_231_sol_in vitro): 1.1
- isoTOP-ABPP ratio, lysine P61978_K405 ([3]; 100 uM_231_sol_in vitro): 1.3
SMILES: CC(C)(C)OC(=O)N=C(NC(=O)OC(C)(C)C)n1cccn1 [fragment 50, reference compound]

- isoTOP-ABPP ratio, lysine Q13561_K175 (DCTN2 Dynactin subunit 2; 100 uM_231_sol_in vitro): 1.5
- isoTOP-ABPP ratio, lysine Q9Y5K5_K323 ([1]; 100 uM_231_sol_in vitro): 9.0
- isoTOP-ABPP ratio, lysine P23381_K256 ([2]; 100 uM_231_sol_in vitro): 1.0
- isoTOP-ABPP ratio, lysine P61978_K405 ([3]; 100 uM_231_sol_in vitro): 1.9
SMILES: COC(=O)NC(=NC(=O)OCC1c2ccccc2-c2ccccc21)n1cccn1 [fragment 49, N-Methoxycarbonyl-N′-9-fluorenylmethoxycarbonyl-pyrazole-1-carboxamidine]
